Common to all, as to experiment: Kinase selectivity, scanMAX Kinase assay panel (DiscoverX), % control at 1 uM
What all share (format): binding

The target of assay [1] is T1, scanMAX Kinase assay panel (Homo sapiens, UniProt P50613).
T1 construct: purchased DiscoverX
As to conditions: CDK7; 1 uM; read-out: Percent Control (%). Put shortly: (§1)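 Compounds were tested at 1 uM in DMSO against each enzyme in the panel. Percent control was calculated as (compound − positive control)/(negative control − positive control) × 100, and a compound was scored active on a kinase when this value fell below 35.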

The target of assay [2] is T2, scanMAX Kinase assay panel (Homo sapiens, UniProt P31749).
T2 construct: purchased DiscoverX
The settings on record: AKT1; 1 uM; read-out: Percent Control (%). Summed up: as §1

The target in assay [3] is T3, scanMAX Kinase assay panel (Homo sapiens, UniProt O96017).
T3 construct: purchased DiscoverX
As to conditions: CHEK2; 1 uM; read-out: Percent Control (%). Summed up: as §1

Assay [4] addresses T4, scanMAX Kinase assay panel (Homo sapiens, UniProt O14730).
T4 construct: purchased DiscoverX
T4 sequence (O14730 1-519): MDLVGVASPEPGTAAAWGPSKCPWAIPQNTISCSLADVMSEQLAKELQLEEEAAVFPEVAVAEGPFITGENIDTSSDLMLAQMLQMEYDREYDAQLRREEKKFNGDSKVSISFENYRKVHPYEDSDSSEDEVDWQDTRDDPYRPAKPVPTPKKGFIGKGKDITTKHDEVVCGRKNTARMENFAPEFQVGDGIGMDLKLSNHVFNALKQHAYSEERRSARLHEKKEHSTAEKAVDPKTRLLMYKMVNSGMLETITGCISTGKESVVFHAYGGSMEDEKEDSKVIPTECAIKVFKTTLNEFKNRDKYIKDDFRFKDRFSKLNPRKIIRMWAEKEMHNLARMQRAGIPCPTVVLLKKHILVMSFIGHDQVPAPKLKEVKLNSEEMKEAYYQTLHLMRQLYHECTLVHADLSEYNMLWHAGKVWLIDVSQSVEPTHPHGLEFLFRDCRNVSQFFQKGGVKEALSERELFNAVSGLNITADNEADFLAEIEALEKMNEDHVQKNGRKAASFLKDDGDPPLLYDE
The settings on record: RIOK3; 1 uM; read-out: Percent Control (%). Summed up: as §1

The target of assay [5] is T5, scanMAX Kinase assay panel (Homo sapiens, UniProt P00533).
T5 construct: purchased DiscoverX
As to conditions: EGFR; 1 uM; read-out: Percent Control (%). Put shortly:
as §1

Assay [6] concerns the target T6, scanMAX Kinase assay panel (Homo sapiens, UniProt Q12866).
T6 construct: purchased DiscoverX
T6 sequence (Q12866 21-999): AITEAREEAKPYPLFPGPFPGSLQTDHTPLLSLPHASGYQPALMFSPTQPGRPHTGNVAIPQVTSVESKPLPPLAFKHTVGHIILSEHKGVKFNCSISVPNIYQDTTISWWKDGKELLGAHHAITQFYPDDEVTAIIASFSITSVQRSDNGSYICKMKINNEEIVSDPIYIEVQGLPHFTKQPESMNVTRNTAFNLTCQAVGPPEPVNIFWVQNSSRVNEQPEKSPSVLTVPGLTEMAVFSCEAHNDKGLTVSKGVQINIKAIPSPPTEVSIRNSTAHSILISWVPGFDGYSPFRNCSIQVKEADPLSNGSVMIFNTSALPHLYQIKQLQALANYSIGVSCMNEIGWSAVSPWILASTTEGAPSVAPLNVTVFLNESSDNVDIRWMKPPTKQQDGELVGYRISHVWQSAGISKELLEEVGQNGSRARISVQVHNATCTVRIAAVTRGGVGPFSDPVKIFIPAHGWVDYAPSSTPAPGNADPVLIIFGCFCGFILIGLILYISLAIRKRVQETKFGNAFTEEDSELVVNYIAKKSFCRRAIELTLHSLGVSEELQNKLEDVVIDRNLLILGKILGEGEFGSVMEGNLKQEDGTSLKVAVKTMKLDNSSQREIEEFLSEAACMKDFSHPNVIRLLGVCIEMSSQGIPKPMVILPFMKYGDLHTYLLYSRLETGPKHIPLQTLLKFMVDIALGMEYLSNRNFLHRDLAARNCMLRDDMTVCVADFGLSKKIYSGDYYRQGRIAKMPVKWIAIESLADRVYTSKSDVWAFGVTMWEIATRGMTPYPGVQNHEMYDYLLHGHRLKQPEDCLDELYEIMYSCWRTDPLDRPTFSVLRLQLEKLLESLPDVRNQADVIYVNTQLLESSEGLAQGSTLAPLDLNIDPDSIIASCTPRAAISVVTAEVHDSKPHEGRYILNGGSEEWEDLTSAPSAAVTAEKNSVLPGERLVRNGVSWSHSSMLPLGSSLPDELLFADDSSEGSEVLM
As to conditions: MERTK; 1 uM; read-out: Percent Control (%). Summed up:
as §1

The target in assay [7] is T7, scanMAX Kinase assay panel (Homo sapiens, UniProt Q04912).
T7 construct: purchased DiscoverX
The settings on record: MST1R; 1 uM; read-out: Percent Control (%). Summed up: as §1

Assay [8] has as its target T8, scanMAX Kinase assay panel (Homo sapiens, UniProt P16234).
T8 construct: purchased DiscoverX
As to conditions: PDGFRA; 1 uM; read-out: Percent Control (%). Put shortly:
as §1

Assay [9] has as its target T9, scanMAX Kinase assay panel (Homo sapiens, UniProt Q15303).
T9 construct: purchased DiscoverX
The settings on record: ERBB4; 1 uM; read-out: Percent Control (%). Summed up:
as §1

In assay [10] the target is T10, scanMAX Kinase assay panel (Homo sapiens, UniProt P09619).
T10 construct: purchased DiscoverX
As to conditions: PDGFRB; 1 uM; read-out: Percent Control (%). Put shortly:
as §1

For assay [11], the target named is T11, scanMAX Kinase assay panel (Homo sapiens, UniProt Q5S007, G2019S).
T11 construct: purchased DiscoverX
As to conditions: LRRK2 (G2019S); 1 uM; read-out: Percent Control (%). Summed up: as §1

Molecules are shown by their SMILES.

T7 sequence (Q04912 25-1400): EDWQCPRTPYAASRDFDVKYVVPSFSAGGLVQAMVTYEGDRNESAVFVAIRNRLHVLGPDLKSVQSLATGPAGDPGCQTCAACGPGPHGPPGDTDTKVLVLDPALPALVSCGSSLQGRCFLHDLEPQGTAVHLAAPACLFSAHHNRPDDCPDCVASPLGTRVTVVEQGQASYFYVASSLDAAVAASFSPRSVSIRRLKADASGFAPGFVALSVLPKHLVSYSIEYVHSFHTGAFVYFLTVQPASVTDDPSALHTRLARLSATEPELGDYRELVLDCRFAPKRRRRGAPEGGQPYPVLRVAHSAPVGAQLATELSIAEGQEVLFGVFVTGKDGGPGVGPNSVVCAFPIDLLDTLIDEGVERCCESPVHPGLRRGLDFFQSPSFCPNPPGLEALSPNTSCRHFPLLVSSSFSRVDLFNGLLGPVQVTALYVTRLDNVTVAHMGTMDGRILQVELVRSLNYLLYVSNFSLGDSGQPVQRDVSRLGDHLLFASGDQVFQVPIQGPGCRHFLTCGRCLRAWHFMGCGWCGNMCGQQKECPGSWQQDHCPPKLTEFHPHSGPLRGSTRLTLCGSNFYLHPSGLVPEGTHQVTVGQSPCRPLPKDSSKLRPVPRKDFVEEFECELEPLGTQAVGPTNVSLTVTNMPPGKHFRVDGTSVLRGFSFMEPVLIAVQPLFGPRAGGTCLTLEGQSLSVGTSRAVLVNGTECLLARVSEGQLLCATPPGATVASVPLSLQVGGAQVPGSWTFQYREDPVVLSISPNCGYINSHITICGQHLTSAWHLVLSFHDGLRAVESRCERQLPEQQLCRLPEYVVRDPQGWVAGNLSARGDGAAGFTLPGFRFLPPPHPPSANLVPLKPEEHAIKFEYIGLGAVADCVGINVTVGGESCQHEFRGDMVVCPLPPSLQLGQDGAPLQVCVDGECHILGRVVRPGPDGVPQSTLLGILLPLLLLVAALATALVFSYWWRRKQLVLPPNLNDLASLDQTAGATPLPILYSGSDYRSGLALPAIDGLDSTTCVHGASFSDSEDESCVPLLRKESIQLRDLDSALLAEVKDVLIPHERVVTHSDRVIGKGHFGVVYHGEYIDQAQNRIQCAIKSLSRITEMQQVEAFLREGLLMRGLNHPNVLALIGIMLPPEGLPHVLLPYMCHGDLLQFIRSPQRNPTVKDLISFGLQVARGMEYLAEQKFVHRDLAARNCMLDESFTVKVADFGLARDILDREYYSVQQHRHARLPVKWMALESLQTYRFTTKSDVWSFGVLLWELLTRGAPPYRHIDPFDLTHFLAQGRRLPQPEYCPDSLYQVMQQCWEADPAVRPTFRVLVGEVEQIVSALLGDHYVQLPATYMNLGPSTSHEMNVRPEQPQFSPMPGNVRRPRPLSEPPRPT
T2 sequence (P31749 whole entry): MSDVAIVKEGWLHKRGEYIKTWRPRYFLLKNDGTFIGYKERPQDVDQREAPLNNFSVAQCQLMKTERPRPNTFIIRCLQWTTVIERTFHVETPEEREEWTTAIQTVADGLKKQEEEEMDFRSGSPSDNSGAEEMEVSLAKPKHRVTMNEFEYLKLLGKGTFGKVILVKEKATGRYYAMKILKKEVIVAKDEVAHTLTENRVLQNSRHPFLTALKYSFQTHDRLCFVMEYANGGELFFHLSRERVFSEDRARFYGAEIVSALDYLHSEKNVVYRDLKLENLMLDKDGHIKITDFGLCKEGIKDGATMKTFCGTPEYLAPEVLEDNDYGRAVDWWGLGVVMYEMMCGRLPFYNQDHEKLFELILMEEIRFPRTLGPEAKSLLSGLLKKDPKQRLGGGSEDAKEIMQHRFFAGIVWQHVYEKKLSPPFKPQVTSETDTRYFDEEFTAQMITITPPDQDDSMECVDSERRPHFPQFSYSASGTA
T10 sequence (P09619 33-1106): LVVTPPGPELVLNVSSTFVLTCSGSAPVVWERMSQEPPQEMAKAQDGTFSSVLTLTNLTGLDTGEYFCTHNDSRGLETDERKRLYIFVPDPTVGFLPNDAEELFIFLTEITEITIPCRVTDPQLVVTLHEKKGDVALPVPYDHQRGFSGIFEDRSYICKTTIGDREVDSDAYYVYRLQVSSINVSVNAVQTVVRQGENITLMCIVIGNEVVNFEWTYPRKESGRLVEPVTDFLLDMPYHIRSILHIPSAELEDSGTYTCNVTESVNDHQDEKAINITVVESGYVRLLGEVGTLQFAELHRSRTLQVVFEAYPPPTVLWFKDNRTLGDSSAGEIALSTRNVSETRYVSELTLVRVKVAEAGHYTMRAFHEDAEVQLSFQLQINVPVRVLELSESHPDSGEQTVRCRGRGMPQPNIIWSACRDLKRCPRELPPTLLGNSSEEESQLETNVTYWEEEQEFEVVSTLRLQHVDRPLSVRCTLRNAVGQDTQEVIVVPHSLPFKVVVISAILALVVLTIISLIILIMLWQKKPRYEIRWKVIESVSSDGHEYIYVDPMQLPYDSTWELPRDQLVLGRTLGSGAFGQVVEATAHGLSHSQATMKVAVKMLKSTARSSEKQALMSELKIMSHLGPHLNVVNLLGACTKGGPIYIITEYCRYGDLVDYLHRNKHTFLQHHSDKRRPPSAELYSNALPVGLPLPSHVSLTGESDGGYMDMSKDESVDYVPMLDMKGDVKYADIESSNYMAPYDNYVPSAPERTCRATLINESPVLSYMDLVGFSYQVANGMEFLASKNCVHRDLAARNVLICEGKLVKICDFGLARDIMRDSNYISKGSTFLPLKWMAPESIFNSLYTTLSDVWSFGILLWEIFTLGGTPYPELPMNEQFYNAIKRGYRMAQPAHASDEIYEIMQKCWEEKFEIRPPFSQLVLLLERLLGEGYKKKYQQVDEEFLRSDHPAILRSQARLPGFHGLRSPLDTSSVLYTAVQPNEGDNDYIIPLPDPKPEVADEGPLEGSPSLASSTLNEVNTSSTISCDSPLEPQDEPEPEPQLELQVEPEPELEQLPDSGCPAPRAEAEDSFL
T5 sequence (P00533 25-1210): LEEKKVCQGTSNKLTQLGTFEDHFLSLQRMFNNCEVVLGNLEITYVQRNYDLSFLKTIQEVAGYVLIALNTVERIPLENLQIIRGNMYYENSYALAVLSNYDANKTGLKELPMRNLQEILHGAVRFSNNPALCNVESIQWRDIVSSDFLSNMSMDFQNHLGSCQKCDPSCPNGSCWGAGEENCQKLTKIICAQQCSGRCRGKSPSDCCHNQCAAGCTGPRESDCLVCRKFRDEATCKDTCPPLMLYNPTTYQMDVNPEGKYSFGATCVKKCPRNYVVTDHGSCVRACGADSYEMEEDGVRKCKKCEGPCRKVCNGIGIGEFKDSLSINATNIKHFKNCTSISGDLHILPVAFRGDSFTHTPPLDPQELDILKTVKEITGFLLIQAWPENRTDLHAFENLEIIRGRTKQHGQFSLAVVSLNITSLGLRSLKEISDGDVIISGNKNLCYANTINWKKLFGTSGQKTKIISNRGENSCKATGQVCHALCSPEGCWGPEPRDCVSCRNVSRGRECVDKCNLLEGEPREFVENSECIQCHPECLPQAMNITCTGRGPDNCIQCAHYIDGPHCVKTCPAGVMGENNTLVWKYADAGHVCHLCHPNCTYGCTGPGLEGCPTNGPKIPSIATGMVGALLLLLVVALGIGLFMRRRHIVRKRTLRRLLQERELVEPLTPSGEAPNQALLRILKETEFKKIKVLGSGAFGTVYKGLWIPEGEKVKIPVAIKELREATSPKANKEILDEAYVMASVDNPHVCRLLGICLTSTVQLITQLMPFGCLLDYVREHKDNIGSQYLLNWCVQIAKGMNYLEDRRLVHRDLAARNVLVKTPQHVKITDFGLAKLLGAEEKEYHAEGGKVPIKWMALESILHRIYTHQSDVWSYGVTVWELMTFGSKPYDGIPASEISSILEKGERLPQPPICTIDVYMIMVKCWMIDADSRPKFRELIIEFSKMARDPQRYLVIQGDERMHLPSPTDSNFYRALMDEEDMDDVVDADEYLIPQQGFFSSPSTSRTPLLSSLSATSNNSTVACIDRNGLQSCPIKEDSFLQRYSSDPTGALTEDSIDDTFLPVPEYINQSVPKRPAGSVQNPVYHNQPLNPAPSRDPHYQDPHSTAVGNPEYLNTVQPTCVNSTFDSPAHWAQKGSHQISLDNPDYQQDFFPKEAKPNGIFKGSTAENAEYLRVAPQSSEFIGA
T1 sequence (P50613 whole entry): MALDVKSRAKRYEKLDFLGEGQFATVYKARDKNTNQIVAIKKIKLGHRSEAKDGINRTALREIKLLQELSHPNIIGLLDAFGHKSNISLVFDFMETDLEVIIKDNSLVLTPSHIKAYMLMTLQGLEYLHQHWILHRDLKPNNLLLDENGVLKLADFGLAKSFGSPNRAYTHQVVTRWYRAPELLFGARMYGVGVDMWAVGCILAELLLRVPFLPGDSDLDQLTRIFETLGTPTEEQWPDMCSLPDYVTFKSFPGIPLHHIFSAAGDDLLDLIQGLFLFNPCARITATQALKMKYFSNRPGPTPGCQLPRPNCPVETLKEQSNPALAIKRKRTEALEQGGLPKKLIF
T3 sequence (O96017 whole entry): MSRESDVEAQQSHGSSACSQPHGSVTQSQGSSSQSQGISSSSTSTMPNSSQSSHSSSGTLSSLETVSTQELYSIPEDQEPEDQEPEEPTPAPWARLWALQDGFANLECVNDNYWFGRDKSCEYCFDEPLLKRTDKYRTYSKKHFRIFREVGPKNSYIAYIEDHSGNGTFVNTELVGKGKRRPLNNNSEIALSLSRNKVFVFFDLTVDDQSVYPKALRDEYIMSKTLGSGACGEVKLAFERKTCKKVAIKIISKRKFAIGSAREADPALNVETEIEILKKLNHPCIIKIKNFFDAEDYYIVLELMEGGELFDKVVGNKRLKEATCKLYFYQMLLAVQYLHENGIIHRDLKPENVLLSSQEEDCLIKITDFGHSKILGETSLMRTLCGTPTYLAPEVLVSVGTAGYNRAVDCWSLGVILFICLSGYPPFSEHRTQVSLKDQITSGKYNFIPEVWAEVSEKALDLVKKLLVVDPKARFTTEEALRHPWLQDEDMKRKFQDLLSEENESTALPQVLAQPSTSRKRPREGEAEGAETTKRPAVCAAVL

Regarding `Cc1ccc(C(=O)Nc2ccc(CN3CCN(C)CC3)c(C(F)(F)F)c2)cc1C#Cc1cnc2c(Nc3cnn(C)c3)cccn12` [Example 1, 4-methyl-3-((8-((1-methyl-1H-pyrazol-4-yl)amino)imidazo[1,2-a]pyridin-3-yl)ethynyl)-N-(4-((4-methylpiperazin-1-yl)methyl)-3-(trifluoromethyl)phenyl)benzamide], the remaining binding at 1 µM came out at 4% in assay [1]; 80% in assay [2]; 34% in assay [3]; 94% in [4]; 3% in assay [5]; 0% in assay [6]. Besides, the remaining binding at 1 µM in [7] was 32%; in assay [8], 1%; in assay [9] it was 0%; in assay [10], 0%; in [11] it was 27%.

For the compound `Cc1cn(-c2cc(NC(=O)c3ccc(C)c(C#Cc4cnc5c(Nc6cnn(C)c6)cccn45)c3)cc(C(F)(F)F)c2)cn1` [Example 12, 4-methyl-N-(3-(4-methyl-1H-imidazol-1-yl)-5-(trifluoromethyl)phenyl)-3-((8-((1-methyl-1H-pyrazol-4-yl)amino)imidazo[1,2-a]pyridin-3-yl)ethynyl)benzamide], the remaining binding at 1 µM came to 66% in assay [1]; 88% in assay [2]; 84% in assay [3]; 96% in [4]; 28% in assay [5]; 3% in assay [6]. For the same compound, the remaining binding at 1 µM was 87% in assay [7]; 4% in assay [8]; 32% in [9]; 1% in assay [10]; 100% in assay [11].

For the compound `Cc1ccc(NC(=O)C2(C(=O)Nc3ccc(F)cc3)CC2)cc1C#Cc1cnc2c(Nc3cnn(C(C)C)c3)cccn12` [Example 78], the remaining binding at 1 µM in assay [1] came out at 82%; in assay [2], 98%; in [3] it was 91%; in assay [4] it was 95%; in assay [5] it was 85%; in [6] it was 100%. The remaining binding at 1 µM in assay [7] was 97%; in assay [8] it was 29%; in assay [9] it was 100%; in [10] it was 0%; in assay [11] it was 100%.

The record behind these values is patent US10870647B2, “Imidazopyridine derivative, method for preparing same, and pharmaceutical composition containing same as active ingredient for preventing or treating cancer” (DAEGU-GYEONGBUK MEDICAL INNOVATION FOUNDATION, priority 2016, dated 2020).
